Reference: ChEMBL document CHEMBL1909046, “DrugMatrix in vitro pharmacology data”

How the values were obtained:
[1] = DRUGMATRIX: Glutamate, AMPA radioligand binding (ligand: [3H] AMPA); assay type: cell membranes, Rattus norvegicus, Wistar, Cerebral cortex, Membrane; settings: Not Active = under 50% inhibition at 10 µM
[2] = target: T1, Endothelin-1 receptor (Homo sapiens, UniProt P25101); assay type: cell membranes, Membrane; settings: cho-k1; further: in other assays of this panel Not Active means under 50% inhibition at 10 µM
T1 sequence (P25101 whole entry): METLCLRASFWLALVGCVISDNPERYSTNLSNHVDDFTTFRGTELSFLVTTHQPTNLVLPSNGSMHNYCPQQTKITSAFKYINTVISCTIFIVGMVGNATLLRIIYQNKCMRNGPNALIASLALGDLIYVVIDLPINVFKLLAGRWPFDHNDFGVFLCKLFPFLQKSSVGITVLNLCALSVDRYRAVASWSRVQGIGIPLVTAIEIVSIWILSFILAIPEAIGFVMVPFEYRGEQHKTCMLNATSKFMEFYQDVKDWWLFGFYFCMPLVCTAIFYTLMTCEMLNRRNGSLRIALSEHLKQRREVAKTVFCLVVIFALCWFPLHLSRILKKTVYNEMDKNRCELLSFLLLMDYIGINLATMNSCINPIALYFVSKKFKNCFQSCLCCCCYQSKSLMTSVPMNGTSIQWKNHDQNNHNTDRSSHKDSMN

[3] = DRUGMATRIX: Platelet-Derived Growth Factor (PDGF) radioligand binding (ligand: [125I] PDGF); assay type: cell-based; settings: nih3t3; Not Active = under 50% inhibition at 10 µM
[4] = target: T2, Muscarinic acetylcholine receptor M5 (Homo sapiens, UniProt P08912); assay type: cell membranes, CHO-K1, Membrane; settings: cho-k1; further: in other assays of this panel Not Active means under 50% inhibition at 10 µM
T2 sequence (P08912 whole entry): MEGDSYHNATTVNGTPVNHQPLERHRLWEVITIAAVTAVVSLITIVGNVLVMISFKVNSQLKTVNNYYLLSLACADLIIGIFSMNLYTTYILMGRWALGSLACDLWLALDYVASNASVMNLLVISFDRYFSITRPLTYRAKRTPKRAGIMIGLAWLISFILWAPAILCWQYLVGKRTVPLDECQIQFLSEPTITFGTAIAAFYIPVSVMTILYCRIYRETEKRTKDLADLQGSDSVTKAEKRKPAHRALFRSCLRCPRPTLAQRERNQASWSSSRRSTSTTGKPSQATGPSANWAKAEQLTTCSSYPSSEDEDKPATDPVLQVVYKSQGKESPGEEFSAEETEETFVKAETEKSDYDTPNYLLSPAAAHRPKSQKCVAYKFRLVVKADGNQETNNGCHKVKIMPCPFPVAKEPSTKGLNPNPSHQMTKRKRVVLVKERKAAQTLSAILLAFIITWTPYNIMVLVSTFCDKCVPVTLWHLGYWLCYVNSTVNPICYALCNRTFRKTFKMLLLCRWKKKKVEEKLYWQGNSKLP

[5] = target: Sigma non-opioid intracellular receptor 1 (Homo sapiens, UniProt Q99720); test: DRUGMATRIX: Sigma1 radioligand binding (ligand: [3H] Haloperidol); assay type: cell membranes, Jurkat, Membrane; settings: jurkat; Not Active = under 50% inhibition at 10 µM
Sequence of Sigma non-opioid intracellular receptor 1 (Q99720 whole entry): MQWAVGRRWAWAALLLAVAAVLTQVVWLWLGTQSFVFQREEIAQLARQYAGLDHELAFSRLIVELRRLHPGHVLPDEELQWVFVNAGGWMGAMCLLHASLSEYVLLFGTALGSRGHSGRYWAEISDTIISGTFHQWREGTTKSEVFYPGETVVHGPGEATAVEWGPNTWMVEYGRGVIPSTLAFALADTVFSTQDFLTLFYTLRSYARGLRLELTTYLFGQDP

[6] = DRUGMATRIX: Potassium Channel [KATP] radioligand binding (ligand: [3H] Glyburide); assay type: cell membranes, Membrane; settings: hit-t15; Not Active = under 50% inhibition at 10 µM

CC(=O)Nc1ccc2c(c1)Cc1ccccc1-2 [2-ACETYLAMINOFLUORENE]
Not Active: IC50 [1] | Ki [1] | IC50 [2] | IC50 [3] | Ki [3] | IC50 [4] | IC50 [5] | IC50 [6] | Ki [6]

C[C@H](C(=O)O)c1ccc2oc(-c3ccc(F)cc3)nc2c1 [FLUNOXAPROFEN]
Not Active: IC50 [1] | Ki [1] | IC50 [2] | IC50 [3] | Ki [3] | IC50 [4] | IC50 [5] | IC50 [6] | Ki [6]

CC(C)Cn1cnc2c(N)nc3ccccc3c21 [IMIQUIMOD]
Not Active: IC50 [1] | Ki [1] | IC50 [2] | IC50 [3] | Ki [3] | IC50 [4] | IC50 [5] | IC50 [6] | Ki [6]

OC[C@H]1OC2C3[C@@H](CO)OC(O[C@H]4[C@H](O)[C@@H](O)[C@@H](O[C@H]5[C@H](O)[C@@H](O)[C@@H](O[C@H]6[C@H](O)[C@@H](O)[C@@H](O[C@H]7[C@H](O)[C@@H](O)[C@@H](O[C@H]8[C@H](O)[C@@H](O)[C@@H](O[C@H]9[C@H](O)[C@@H](O)C(OC1[C@H](O)[C@H]2O)O[C@@H]9CO)O[C@@H]8CO)O[C@@H]7CO)O[C@@H]6CO)O[C@@H]5CO)O[C@@H]4CO)[C@H](O)[C@H]3O
Not Active: IC50 [1] | Ki [1] | IC50 [2] | IC50 [3] | Ki [3] | IC50 [4] | IC50 [5] | IC50 [6] | Ki [6]

CCN1CCN(c2cc3c(cc2F)c(=O)c(C(=O)O)cn3C2CC2)CC1 [ENROFLOXACIN]
Not Active: IC50 [1] | Ki [1] | IC50 [2] | IC50 [3] | Ki [3] | IC50 [4] | IC50 [5] | IC50 [6] | Ki [6]

POVIDONE
Not Active: IC50 [1] | Ki [1] | IC50 [2] | Ki [2] | IC50 [3] | Ki [3] | IC50 [4] | Ki [4] | IC50 [5] | Ki [5] | IC50 [6] | Ki [6]

C=C(Cl)Cl [1,1-DICHLOROETHENE]
Not Active: IC50 [1] | Ki [1] | IC50 [2] | IC50 [3] | Ki [3] | IC50 [4] | IC50 [5] | IC50 [6] | Ki [6]

C#C[C@]1(O)CC[C@H]2[C@@H]3CCC4=CC(=O)CC[C@@H]4[C@H]3CC[C@@]21C [NORETHINDRONE]
Not Active: IC50 [1] | Ki [1] | IC50 [2] | IC50 [3] | Ki [3] | IC50 [4] | IC50 [5] | IC50 [6] | Ki [6]

C=CCN1CC[C@]23c4c5ccc(O)c4O[C@H]2/C(=N/N=C2\CC[C@@]4(O)[C@H]6Cc7ccc(O)c8c7[C@@]4(CCN6CC=C)[C@H]2O8)CC[C@@]3(O)[C@H]1C5 [NALOXONAZINE]
Not Active: IC50 [1] | Ki [1] | IC50 [2] | IC50 [3] | Ki [3] | IC50 [4] | IC50 [5] | IC50 [6] | Ki [6]

Oc1ncnc2[nH]ncc12 [ALLOPURINOL]
Not Active: IC50 [1] | Ki [1] | IC50 [2] | IC50 [3] | Ki [3] | IC50 [4] | IC50 [5] | IC50 [6] | Ki [6]

CCC1(c2ccccc2)C(=O)NC(=O)NC1=O [PHENOBARBITAL]
Not Active: IC50 [1] | Ki [1] | IC50 [2] | IC50 [3] | Ki [3] | IC50 [4] | IC50 [5] | IC50 [6] | Ki [6]

CHROMIC CHLORIDE
Not Active: IC50 [1] | Ki [1] | IC50 [2] | Ki [2] | IC50 [3] | Ki [3] | IC50 [4] | Ki [4] | IC50 [5] | Ki [5] | IC50 [6] | Ki [6]

CCCCCCNC(=O)n1cc(F)c(=O)[nH]c1=O [CARMOFUR]
Not Active: IC50 [1] | Ki [1] | IC50 [2] | IC50 [3] | Ki [3] | IC50 [4] | IC50 [5] | IC50 [6] | Ki [6]

O=C(O)CCc1nc(-c2ccccc2)c(-c2ccccc2)o1 [OXAPROZIN]
Not Active: IC50 [1] | Ki [1] | IC50 [2] | IC50 [3] | Ki [3] | IC50 [4] | IC50 [5] | IC50 [6] | Ki [6]

CCN1C[C@]2(COC)[C@H](O)C[C@H](OC)[C@@]34[C@@H]5C[C@@]6(O)[C@H](OC(=O)c7ccccc7)[C@@H]5[C@@](OC(C)=O)([C@@H]([C@H](OC)[C@H]23)[C@@H]14)[C@@H](O)[C@@H]6OC [ACONITINE]
Not Active: IC50 [1] | Ki [1] | IC50 [2] | IC50 [3] | Ki [3] | IC50 [4] | IC50 [5] | IC50 [6] | Ki [6]
